From BindingDB's records for PubMed 20126400 (University of Oklahoma, 2010)

Legend:
Experiment in all cases: Ray2010 Assay 74
[1] = molecular target: T1, 5-hydroxytryptamine receptor 3A (Homo sapiens, UniProt P46098)
T1 sequence (P46098 whole entry): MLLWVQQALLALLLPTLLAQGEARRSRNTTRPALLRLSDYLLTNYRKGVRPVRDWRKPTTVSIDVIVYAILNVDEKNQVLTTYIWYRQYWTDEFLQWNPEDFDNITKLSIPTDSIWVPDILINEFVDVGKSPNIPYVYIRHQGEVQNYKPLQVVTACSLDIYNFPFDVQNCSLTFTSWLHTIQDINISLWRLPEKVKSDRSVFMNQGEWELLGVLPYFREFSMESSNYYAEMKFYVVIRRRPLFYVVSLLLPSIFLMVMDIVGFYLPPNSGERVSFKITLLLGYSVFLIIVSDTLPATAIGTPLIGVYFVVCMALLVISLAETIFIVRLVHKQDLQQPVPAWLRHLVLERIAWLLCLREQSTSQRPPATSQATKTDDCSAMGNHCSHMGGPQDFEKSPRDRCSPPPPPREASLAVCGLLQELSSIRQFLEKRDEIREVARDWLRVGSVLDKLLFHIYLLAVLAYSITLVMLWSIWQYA
Description: (§1) Table S2 shows raw Ki data for the current study combined with data collected from the literature for the ten additional compounds.

[2] = molecular target: 5-hydroxytryptamine receptor 5A (Homo sapiens, UniProt P47898)
Description: as §1

Cannabinoid receptor 1 = Cannabinoid receptor 1 (Homo sapiens, UniProt P21554)
Description: as §1

Cannabinoid receptor 2 = Cannabinoid receptor 2 (Homo sapiens, UniProt P34972)
Description: as §1

D(1B) dopamine receptor = D(1B) dopamine receptor (Homo sapiens, UniProt P21918)
Description: as §1

[3] = molecular target: T2, Gamma-aminobutyric acid receptor subunit alpha-1/Adenosine receptor A1 (Homo sapiens, UniProt P14867+P30542)
T2 sequence (P30542 whole entry): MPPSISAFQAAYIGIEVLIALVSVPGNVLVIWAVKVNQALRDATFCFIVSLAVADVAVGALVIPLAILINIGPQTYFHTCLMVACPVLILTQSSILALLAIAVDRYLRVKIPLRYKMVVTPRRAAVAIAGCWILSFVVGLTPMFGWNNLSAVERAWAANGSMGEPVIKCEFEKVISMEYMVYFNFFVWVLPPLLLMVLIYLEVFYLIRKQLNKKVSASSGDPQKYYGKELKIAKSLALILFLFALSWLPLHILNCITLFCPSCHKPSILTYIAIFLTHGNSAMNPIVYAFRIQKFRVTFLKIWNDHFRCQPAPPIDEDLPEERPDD
T2 sequence (P14867 whole entry): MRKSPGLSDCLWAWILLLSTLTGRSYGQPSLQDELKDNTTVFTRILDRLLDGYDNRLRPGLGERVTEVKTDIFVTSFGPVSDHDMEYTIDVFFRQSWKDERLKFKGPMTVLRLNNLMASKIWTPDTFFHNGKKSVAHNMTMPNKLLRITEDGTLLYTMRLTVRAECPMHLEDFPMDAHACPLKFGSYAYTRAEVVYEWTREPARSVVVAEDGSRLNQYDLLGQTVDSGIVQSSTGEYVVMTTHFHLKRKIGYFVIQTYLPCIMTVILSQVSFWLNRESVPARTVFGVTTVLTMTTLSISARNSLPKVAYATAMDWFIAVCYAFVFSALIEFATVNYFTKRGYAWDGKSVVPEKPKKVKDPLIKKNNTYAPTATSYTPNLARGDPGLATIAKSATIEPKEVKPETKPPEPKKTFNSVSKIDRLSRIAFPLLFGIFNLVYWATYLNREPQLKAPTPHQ
Description: as §1

[4] = molecular target: Kappa-type opioid receptor (Homo sapiens, UniProt P41145)
Description: as §1

[5] = molecular target: T3, Muscarinic acetylcholine receptor M4 (Homo sapiens, UniProt P08173)
T3 sequence (P08173 whole entry): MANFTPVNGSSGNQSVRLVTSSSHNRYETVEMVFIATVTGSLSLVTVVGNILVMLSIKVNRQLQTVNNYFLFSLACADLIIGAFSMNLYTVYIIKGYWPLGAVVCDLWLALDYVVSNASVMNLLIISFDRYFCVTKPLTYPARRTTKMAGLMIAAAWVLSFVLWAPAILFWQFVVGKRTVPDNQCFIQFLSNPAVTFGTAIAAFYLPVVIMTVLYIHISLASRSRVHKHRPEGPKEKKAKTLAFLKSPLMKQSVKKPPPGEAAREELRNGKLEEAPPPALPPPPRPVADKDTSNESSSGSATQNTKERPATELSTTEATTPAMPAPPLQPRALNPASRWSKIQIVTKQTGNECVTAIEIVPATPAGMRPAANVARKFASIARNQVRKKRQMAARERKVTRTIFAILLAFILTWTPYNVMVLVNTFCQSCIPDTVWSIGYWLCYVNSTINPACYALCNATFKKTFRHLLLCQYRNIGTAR
Description: as §1

[6] = molecular target: T4, Muscarinic acetylcholine receptor M5 (Homo sapiens, UniProt P08912)
T4 sequence (P08912 whole entry): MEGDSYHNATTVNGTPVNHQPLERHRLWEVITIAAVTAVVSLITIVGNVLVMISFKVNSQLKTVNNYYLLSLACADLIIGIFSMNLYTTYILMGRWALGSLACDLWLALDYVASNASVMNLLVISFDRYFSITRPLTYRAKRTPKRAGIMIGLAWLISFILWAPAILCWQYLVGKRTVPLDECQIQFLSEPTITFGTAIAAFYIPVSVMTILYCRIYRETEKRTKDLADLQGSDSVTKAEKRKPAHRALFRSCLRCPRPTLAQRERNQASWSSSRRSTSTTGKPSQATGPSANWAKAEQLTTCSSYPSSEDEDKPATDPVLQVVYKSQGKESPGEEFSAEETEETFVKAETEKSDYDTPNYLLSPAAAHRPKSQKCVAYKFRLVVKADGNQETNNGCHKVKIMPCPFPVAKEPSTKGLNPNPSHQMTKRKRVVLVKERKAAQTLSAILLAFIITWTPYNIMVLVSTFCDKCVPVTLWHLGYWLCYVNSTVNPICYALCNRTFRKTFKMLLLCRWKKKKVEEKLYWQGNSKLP
Description: as §1

Nischarin = Nischarin (Homo sapiens, UniProt Q9Y2I1)
Description: as §1

[7] = molecular target: Voltage-dependent calcium channel subunit alpha-2/delta-1 (Homo sapiens, UniProt P54289)
Description: as §1

[8] = molecular target: T5, 5-hydroxytryptamine receptor 1A (Homo sapiens, UniProt P08908)
T5 sequence (P08908 whole entry): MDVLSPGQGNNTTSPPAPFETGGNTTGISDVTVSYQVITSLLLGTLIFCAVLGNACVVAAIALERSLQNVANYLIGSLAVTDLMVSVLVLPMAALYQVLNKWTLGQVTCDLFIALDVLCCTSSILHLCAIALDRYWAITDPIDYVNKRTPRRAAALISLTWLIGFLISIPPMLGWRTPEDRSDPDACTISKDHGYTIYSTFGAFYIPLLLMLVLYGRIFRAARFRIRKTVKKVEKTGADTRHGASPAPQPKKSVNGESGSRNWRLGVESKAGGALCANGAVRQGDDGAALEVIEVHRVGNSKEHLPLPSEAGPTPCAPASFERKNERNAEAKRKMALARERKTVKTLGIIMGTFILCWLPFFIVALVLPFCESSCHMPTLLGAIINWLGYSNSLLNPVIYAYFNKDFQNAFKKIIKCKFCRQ
Description: as §1

[9] = molecular target: 5-hydroxytryptamine receptor 1B (Homo sapiens, UniProt P28222)
Description: as §1

[10] = molecular target: 5-hydroxytryptamine receptor 1E (Homo sapiens, UniProt P28566)
Description: as §1

[11] = molecular target: 5-hydroxytryptamine receptor 2A (Homo sapiens, UniProt P28223)
Description: as §1

[12] = molecular target: 5-hydroxytryptamine receptor 2B (Homo sapiens, UniProt P41595)
Description: as §1

[13] = molecular target: 5-hydroxytryptamine receptor 6 (Homo sapiens, UniProt P50406)
Description: as §1

[14] = molecular target: T6, Alpha-1A adrenergic receptor (Homo sapiens, UniProt P35348)
T6 sequence (P35348 whole entry): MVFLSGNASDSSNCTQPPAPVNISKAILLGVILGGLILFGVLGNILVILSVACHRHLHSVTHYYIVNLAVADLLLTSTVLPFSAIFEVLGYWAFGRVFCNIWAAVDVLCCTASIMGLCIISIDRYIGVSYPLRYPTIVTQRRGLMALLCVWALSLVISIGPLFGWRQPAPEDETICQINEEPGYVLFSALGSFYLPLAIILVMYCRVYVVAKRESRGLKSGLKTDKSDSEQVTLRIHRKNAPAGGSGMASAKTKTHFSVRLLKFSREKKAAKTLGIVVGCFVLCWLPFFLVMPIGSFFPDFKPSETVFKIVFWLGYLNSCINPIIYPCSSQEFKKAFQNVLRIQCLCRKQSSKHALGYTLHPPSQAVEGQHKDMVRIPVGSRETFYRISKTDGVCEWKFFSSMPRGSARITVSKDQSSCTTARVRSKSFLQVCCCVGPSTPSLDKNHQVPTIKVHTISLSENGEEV
Description: as §1

D(1A) dopamine receptor = D(1A) dopamine receptor (Homo sapiens, UniProt P21728)
Description: as §1

D(2) dopamine receptor = D(2) dopamine receptor (Homo sapiens, UniProt P14416)
Description: as §1

Histamine H1 receptor = Histamine H1 receptor (Homo sapiens, UniProt P35367)
Description: as §1

Sequence of 5-hydroxytryptamine receptor 5A (P47898 whole entry): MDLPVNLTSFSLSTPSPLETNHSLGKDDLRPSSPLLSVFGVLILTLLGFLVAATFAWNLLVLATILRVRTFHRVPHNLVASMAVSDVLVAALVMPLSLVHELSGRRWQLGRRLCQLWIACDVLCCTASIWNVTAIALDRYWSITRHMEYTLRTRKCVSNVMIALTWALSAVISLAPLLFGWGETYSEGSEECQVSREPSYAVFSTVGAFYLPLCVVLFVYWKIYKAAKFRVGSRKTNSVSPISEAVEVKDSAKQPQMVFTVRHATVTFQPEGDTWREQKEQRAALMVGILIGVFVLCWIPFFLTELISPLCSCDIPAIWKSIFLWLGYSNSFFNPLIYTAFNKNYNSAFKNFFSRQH
Sequence of Nischarin (Q9Y2I1 whole entry): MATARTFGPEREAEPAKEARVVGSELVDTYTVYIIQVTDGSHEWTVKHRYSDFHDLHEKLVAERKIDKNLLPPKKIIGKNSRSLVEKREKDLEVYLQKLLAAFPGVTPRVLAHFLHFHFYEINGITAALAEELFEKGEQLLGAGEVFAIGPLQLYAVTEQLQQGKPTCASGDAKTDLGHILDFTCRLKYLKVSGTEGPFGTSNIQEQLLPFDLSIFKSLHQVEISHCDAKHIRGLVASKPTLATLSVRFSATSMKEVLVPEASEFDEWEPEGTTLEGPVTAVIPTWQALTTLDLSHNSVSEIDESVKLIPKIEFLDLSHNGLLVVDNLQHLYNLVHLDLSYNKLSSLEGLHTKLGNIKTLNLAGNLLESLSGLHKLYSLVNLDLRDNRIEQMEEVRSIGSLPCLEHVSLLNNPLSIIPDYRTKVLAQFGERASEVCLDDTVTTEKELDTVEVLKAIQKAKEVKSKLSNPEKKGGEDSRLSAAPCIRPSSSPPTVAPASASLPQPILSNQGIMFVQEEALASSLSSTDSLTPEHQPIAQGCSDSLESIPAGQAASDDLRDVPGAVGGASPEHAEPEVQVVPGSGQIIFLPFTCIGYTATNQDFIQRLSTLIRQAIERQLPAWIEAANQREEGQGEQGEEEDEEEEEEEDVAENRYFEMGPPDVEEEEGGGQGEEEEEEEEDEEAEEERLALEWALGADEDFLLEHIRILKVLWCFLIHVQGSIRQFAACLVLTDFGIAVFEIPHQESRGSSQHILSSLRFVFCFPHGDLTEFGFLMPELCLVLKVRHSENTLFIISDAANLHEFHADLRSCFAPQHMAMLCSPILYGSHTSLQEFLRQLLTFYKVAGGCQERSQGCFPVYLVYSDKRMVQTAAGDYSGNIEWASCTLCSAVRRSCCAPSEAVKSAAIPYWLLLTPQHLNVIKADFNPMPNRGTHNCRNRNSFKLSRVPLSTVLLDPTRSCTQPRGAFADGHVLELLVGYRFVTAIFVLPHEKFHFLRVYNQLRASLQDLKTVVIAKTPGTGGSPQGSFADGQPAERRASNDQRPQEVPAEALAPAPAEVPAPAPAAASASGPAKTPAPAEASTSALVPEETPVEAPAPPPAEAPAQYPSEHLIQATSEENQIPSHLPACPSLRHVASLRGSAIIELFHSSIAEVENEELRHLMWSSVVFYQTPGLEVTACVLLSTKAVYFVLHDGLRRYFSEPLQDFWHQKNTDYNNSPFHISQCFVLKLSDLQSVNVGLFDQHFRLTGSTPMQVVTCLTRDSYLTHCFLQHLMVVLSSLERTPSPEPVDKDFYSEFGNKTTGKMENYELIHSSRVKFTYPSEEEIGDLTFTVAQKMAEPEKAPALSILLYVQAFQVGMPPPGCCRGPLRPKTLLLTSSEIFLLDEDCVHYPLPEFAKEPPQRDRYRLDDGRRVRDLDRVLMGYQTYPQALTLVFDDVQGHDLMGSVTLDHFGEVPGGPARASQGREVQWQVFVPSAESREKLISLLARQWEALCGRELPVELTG
Sequence of Histamine H1 receptor (P35367 whole entry): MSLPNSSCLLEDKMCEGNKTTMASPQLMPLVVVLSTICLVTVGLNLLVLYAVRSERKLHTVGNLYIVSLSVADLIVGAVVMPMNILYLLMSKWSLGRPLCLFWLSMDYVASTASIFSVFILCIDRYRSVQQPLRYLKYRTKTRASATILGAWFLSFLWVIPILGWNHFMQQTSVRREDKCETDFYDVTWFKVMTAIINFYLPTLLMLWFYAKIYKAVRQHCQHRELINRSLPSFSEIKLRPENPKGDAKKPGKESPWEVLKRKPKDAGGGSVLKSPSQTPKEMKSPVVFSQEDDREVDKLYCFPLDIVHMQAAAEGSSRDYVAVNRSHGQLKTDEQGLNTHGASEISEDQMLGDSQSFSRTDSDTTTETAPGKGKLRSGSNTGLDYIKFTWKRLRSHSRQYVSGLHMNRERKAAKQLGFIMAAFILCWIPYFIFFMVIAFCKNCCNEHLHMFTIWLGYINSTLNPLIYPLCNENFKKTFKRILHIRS
Sequence of 5-hydroxytryptamine receptor 1B (P28222 whole entry): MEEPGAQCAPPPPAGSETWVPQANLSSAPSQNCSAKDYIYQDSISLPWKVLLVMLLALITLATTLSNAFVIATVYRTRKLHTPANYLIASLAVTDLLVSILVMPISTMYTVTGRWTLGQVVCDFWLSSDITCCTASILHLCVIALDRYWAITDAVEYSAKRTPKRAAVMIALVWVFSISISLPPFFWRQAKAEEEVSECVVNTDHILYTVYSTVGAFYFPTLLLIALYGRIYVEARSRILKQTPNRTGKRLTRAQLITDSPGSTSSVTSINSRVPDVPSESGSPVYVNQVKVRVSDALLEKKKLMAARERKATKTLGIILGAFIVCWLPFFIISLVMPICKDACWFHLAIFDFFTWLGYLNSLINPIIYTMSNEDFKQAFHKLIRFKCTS
Sequence of 5-hydroxytryptamine receptor 6 (P50406 whole entry): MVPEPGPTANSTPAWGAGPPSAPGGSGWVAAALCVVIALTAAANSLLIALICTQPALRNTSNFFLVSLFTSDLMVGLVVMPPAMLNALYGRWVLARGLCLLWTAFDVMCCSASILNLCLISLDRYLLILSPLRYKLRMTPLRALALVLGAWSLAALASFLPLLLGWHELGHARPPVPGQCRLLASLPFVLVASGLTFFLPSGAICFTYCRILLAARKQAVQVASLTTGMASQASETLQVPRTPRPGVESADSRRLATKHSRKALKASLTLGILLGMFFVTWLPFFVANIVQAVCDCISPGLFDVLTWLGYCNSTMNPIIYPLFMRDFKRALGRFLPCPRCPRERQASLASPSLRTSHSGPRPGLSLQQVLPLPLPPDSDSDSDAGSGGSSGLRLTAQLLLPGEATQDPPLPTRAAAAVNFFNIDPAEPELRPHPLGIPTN
Sequence of Kappa-type opioid receptor (P41145 whole entry): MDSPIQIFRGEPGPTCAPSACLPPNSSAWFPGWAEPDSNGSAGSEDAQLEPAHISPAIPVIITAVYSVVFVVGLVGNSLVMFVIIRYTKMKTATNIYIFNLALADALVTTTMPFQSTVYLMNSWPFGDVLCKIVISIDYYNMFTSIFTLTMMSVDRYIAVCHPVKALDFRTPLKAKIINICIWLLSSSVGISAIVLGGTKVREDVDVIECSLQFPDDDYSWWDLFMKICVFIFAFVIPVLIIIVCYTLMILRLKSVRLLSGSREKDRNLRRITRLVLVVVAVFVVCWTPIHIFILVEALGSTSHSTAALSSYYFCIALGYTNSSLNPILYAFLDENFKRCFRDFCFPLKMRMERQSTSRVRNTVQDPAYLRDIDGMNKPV
Sequence of D(1B) dopamine receptor (P21918 whole entry): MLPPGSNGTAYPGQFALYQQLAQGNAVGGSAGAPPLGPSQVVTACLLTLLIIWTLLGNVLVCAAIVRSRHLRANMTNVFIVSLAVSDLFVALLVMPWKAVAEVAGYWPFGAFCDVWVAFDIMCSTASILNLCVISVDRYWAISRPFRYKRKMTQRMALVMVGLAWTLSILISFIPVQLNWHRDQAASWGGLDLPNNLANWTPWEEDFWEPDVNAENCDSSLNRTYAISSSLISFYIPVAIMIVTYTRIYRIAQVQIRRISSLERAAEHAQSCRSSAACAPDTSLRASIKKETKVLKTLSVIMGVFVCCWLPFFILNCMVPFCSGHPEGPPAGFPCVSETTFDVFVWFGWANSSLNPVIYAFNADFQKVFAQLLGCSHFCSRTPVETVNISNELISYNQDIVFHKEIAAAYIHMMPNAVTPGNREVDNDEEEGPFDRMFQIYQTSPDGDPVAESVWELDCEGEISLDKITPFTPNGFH
Sequence of 5-hydroxytryptamine receptor 2B (P41595 whole entry): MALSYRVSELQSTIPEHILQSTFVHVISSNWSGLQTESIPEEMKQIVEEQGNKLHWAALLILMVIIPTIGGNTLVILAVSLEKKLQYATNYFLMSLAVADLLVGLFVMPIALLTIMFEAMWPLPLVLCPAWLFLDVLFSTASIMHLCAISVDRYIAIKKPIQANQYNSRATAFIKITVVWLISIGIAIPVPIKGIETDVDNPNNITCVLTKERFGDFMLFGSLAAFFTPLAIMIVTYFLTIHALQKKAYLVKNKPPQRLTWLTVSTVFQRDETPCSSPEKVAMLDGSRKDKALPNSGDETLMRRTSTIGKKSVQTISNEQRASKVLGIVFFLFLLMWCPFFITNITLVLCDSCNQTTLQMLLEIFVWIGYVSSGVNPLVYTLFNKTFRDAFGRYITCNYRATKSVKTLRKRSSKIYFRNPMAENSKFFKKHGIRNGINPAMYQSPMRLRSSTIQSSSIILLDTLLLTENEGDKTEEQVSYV
Sequence of 5-hydroxytryptamine receptor 2A (P28223 whole entry): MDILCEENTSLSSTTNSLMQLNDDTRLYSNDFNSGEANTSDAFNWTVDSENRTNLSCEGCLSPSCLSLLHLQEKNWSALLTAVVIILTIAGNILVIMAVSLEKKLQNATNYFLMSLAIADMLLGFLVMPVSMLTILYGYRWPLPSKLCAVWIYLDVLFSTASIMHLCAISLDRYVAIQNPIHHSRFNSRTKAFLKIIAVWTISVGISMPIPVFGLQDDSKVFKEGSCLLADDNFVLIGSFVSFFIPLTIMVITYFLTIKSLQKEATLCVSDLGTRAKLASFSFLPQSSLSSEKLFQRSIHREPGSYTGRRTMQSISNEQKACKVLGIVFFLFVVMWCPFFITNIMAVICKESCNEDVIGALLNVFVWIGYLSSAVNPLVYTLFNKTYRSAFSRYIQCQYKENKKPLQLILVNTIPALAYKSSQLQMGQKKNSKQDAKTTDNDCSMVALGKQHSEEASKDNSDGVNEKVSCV

## CCN(CC)C(=O)N[C@H]1C=C2c3cccc4[nH]cc(c34)C[C@H]2N(C)C1 [lisuride, (S)]
[1]
  Ki: > 10000 nM
[2]
  Ki: 3.1 nM
Cannabinoid receptor 1
  Ki: > 10000 nM
Cannabinoid receptor 2
  Ki: > 10000 nM
D(1B) dopamine receptor
  Ki: 77 nM
[3]
  Ki: > 10000 nM
[4]
  Ki: > 10000 nM
[5]
  Ki: > 10000 nM
[6]
  Ki: > 10000 nM
Nischarin
  Ki: > 10000 nM
[7]
  Ki: > 10000 nM

## C[C@@H]1C[C@@H](C)N1C(=O)C1C=C2c3cccc4[nH]cc(c34)C[C@H]2N(C)C1 (some centres not stated) [ss-2c]
[8]
  Ki: 0.4 nM
[9]
  Ki: 2.4 nM
[10]
  Ki: 276 nM
[11]
  Ki: 19.2 nM
[12]
  Ki: 27 nM
[2]
  Ki: 27.3 nM
[13]
  Ki: 14.5 nM
[14]
  Ki: 850 nM
D(1A) dopamine receptor
  Ki: 292 nM
D(2) dopamine receptor
  Ki: 73.6 nM
Histamine H1 receptor
  Ki: 2500 nM
